Calls of active or inactive are those of the source. The rule behind the calls is not given here.
How the values were obtained:
[1] = system: Morganella morganii; assay: Inhibition of recombinant Morganella morganii JCM1672 TPL extracted from Escherichia coli BL21(DE3) assessed as decrease in phenol production incubated for 3 mins in presence of PLP/L-Tyr by LC-MS analysis
[2] = Competitive inhibition of bacterial TPL assessed as decrease in phenol production incubated for 3 mins in presence of PLP/L-Tyr by LC-MS analysis; set-up: species or system Bacteria
[3] = system: Citrobacter koseri; assay: Inhibition of recombinant Citrobacter koseri JCM1658 TPL extracted from Escherichia coli BL21(DE3) assessed as decrease in phenol production incubated for 3 mins in presence of PLP/L-Tyr by LC-MS analysis
[4] = system: Morganella morganii; assay: Inhibition of TPL in Morganella morganii JCM1672 assessed as decrease in phenol production at 500 uM incubated for 0.5 to 3 hrs by absorbance based analysis; conditions: time 0.5-3 hrs
[5] = system: Morganella morganii; assay: Inhibition of cell growth in Morganella morganii JCM1672 up to 500 uM incubated up to 24 hrs; format: functional, organism-based
[6] = system: Citrobacter koseri; assay: Inhibition of TPL in Citrobacter koseri JCM1658 assessed as decrease in phenol production incubated for 0.5 to 3 hrs by absorbance based analysis; conditions: dose 100-500 µM, time 0.5-3 hrs
[7] = system: Citrobacter koseri; assay: Inhibition of TPL in Citrobacter koseri JCM1658 assessed as decrease in phenol production at 100 to 500 uM incubated for 3 hrs by absorbance based analysis relative to control; conditions: dose 100-500 µM
[8] = system: Mus musculus; assay: In vivo inhibition of TPL in feces of C57BL/6J mouse administered orally measured after 14 days by immunoassay; format: functional, organism-based; conditions: route po, time 14.0 day
[9] = system: Citrobacter koseri; assay: Effect on TPL expression in Citrobacter koseri JCM1658 up to 500 uM by immunoblot analysis; format: functional
[10] = system: Morganella morganii; assay: Inhibition of TPL in Morganella morganii JCM1672 assessed as decrease in phenol production at 100 to 500 uM incubated for 3 hrs by absorbance based analysis relative to control; conditions: dose 100-500 µM
[11] = system: Morganella morganii; assay: Effect on TPL expression in Morganella morganii JCM1672 up to 500 uM by immunoblot analysis; format: functional
[12] = system: Morganella morganii; assay: Inhibition of TPL in Morganella morganii JCM1672 assessed as decrease in phenol production at 100 uM incubated for 1 hr by absorbance based analysis
[13] = system: Mus musculus; assay: Effect on fecal phenol level in C57BL/6J mouse administered orally measured after 7 days by LC-MS analysis; format: functional, organism-based; conditions: route po, time 7.0 day
[14] = system: Mus musculus; assay: In vivo inhibition of TPL in C57BL/6J mouse assessed as reduction in L-Tyr-induced fecal phenol level administered orally measured after 14 days by LC-MS analysis; format: functional, organism-based; conditions: route po, time 14.0 day
[15] = system: Citrobacter koseri; assay: Inhibition of cell growth in Citrobacter koseri JCM1658 up to 500 uM incubated up to 24 hrs; format: functional, organism-based

Oc1ccccc1O
inhibition [1]: inactive

COc1cc(C(=O)O)ccc1O
inhibition [1]: inactive

COc1ccc(C(=O)O)cc1O [ISOVANILLIC ACID]
inhibition [1]: Active
Ki [2]: 44.7 µM

O=C(O)Cc1ccc(O)c(O)c1
inhibition [1]: inactive

N[C@@H](Cc1ccc(O)cn1)C(=O)O
Ki [2]: 130 µM

COc1ccc(C(=O)O)cc1OC
inhibition [1]: inactive

O=C(O)c1cc(O)c(O)c(O)c1 [GALLIC ACID]
inhibition [3]: Active
inhibition [1]: Active
Ki [2]: 73.2 µM

O=C(O)c1cncc(O)c1
inhibition [1]: Active

O=C(O)c1cccnc1
inhibition [1]: inactive

O=C(O[C@@H]1Cc2c(O)cc(O)cc2O[C@@H]1c1ccc(O)c(O)c1)c1cc(O)c(O)c(O)c1
inhibition [3]: Active
inhibition [1]: Active

O=C(O[C@@H]1Cc2c(O)cc(O)cc2O[C@@H]1c1cc(O)c(O)c(O)c1)c1cc(O)c(O)c(O)c1
inhibition [3]: Active
inhibition [1]: Active

O=C(O)c1ccc(O)cc1
inhibition [1]: inactive

Oc1cccc(O)c1O
inhibition [1]: inactive

O=C(O)c1cc(O)cc(O)c1 [3,5-DIHYDROXYBENZOIC ACID]
inhibition [4]: Active
inhibition [5]: inactive
inhibition [6]: Dose-dependent-effect
Imax [7]: 56.2%
inhibition [8]: Active; Tpl Expression Was Below The Detection Limit
Activity [9]: No effect
inhibition [1]: Active
Imax [10]: 29.3%
Activity [11]: No effect
Ki [2]: 25.7 µM
inhibition [12]: Active
Activity [13]: No effect
inhibition [14]: Active
inhibition [15]: inactive

O=C(O)c1cccc(O)c1 [3-HYDROXYBENZOIC ACID]
inhibition [1]: Active
Ki [2]: 35.8 µM

O=C(O)c1ccc(O)c(O)c1 [PROTOCATECHUIC ACID]
inhibition [1]: Active
Ki [2]: 45.5 µM

O=C(O)c1ccc(O)nc1
inhibition [1]: inactive

O=C(O)c1ccccc1
inhibition [1]: inactive

Oc1cccc(O)c1
inhibition [1]: inactive
